Results as given in patent US20250009895A1, “DRUG LOADING MONOMOLECULAR NANO POLYMER, PRODRUG, MICELLE, DRUG DELIVERY SYSTEM, PREPARATION METHOD, AND USE” (priority 2021, published 2025).

Test system: A549 lung cancer subcutaneous xenograft model
Experiment: Tumor drug accumulation test, Pt in tumor by ICP-MS
Assay type: in vivo, Bal b/c nude mice
Details: tail vein injection, CPT 5 mg/kg and Pt 1.8 mg/kg
Method: The tumor model used in this example was A549 lung cancer subcutaneous xenograft model. Female Bal b/c nude mice at the age of 8 weeks were administrated with the drug formulation via tail vein injection at a dose of 200 microliters with CPT at 5 mg/kg and Pt at 1.8 mg/kg. Equivalent amounts of cisplatin and the self-assembled dual-drug nano-formulation cisplatin@PEG-PGlu(ss-CPT) served as controls. At different time points after the intravenous injection, the mice were dissected, and the tumor tissues were collected and fully dissolved in concentrated nitric acid. The Pt contents in the tumor tissues were measured using ICP-MS.

N.N.[Cl][Pt][Cl] [cisplatin]
drug (Pt) concentration / enrichment in the tumor: relatively low
